Assay results taken from the supplement of paper PMC10011410.
± gives the standard deviation of the averaged measurements.

Assays:
[1] = tested on: U-2 OS; test: cell painting activity score (Mahalanobis distance from DMSO wells); higher = stronger morphological phenotype; conditions: 24 h
Method in brief: (§1)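 Cell painting used U-2 OS cells at about 1,500 per well in 384-well plates, treated by pin tool for 24 h at 37 °C, usually at six 2-fold concentrations from 20 μM to 625 nM. Cells were stained with MitoTracker, concanavalin A, phalloidin, wheat germ agglutinin, Hoechst and SYTO 14 and imaged on an Opera Phenix. Features were extracted with CellProfiler and normalized to DMSO cells on the same plate. The activity score is the Mahalanobis distance from DMSO wells; cell count is relative to DMSO wells. Values are means of four replicate plates.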

[2] = tested on: U-2 OS; test: intracellular GSH:GSSG ratio (calculated); higher = more reduced glutathione pool; conditions: 24 h
Description: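 Intracellular glutathione in U-2 OS cells after 24 h compound treatment at 5, 10 and 20 uM (some at 40 and 80 uM). Total glutathione and GSSG were measured with the GSH/GSSG-Glo kit, and the GSH:GSSG ratio was calculated. Mean of five technical replicate plates.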

[3] = tested on: U-2 OS; test: cell viability (CellTiter-Glo) relative to DMSO (% of control); higher = more viable; conditions: 24 h
Method in brief: (§2)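 Viability was assessed with CellTiter-Glo, and total glutathione and GSSG with GSH/GSSG-Glo, on separate plates by luminescence. The U-2 OS cells, seeded at 750 per well in white low-volume 384-well plates, were exposed 24 h later to most compounds at 20, 10 and 5 μM in 0.4% DMSO for 24 h at 37 °C. Corrected values from five replicate plates are expressed relative to vehicle or as a GSH:GSSG ratio.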

[4] = tested on: U-2 OS; test: relative cell count vs DMSO (cell painting) (fraction of DMSO control); higher = more cells remaining (less cytotoxic); conditions: 24 h
Method in brief: as §1

[5] = tested on: U-2 OS; test: total intracellular glutathione (GSH + GSSG) relative to DMSO (% of control); higher = more glutathione; conditions: 24 h
Method in brief: as §2

[6] = tested on: U-2 OS; test: AUC of culture confluence over time (live-cell imaging) (AUC (confluence % x time)); higher = more confluent culture (less growth inhibition)
Method in brief: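 Using an Incucyte S3 with a 10x objective, confluence of U-2 OS cells was imaged every 4 h for up to 60 h at 37 °C. The cells had been seeded at 750 per well in 384-well plates in F-12K medium with 10% FBS and treated by pin tool 24 h later, most compounds at 20, 10 and 5 μM with 0.2% DMSO. The value given is the area under the confluence-versus-time curve.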

SMILES	cell painting activity score ([1]; 0.625 µM)	cell painting activity score ([1]; 1.25 µM)	cell painting activity score ([1]; 2.5 µM)	cell painting activity score ([1]; 5 µM)	cell painting activity score ([1]; 10 µM)	cell painting activity score ([1]; 20 µM)	cell painting activity score ([1]; 40 µM)	cell painting activity score ([1]; 80 µM)	intracellular GSH:GSSG ratio ([2]; 5 µM)	intracellular GSH:GSSG ratio ([2]; 10 µM)	intracellular GSH:GSSG ratio ([2]; 20 µM)	intracellular GSH:GSSG ratio ([2]; 40 µM)	intracellular GSH:GSSG ratio ([2]; 80 µM)	cell viability ([3]; 5 µM)	cell viability ([3]; 10 µM)	cell viability ([3]; 20 µM)	cell viability ([3]; 40 µM)	cell viability ([3]; 80 µM)	relative cell count ([4]; 0.625 µM)	relative cell count ([4]; 1.25 µM)	relative cell count ([4]; 2.5 µM)	relative cell count ([4]; 5 µM)	relative cell count ([4]; 10 µM)	relative cell count ([4]; 20 µM)	relative cell count ([4]; 40 µM)	relative cell count ([4]; 80 µM)	total intracellular glutathione ([5]; 5 µM)	total intracellular glutathione ([5]; 10 µM)	total intracellular glutathione ([5]; 20 µM)	total intracellular glutathione ([5]; 40 µM)	total intracellular glutathione ([5]; 80 µM)	AUC of culture confluence over time ([6]; 5 µM)	AUC of culture confluence over time ([6]; 10 µM)	AUC of culture confluence over time ([6]; 20 µM)	AUC of culture confluence over time ([6]; 40 µM)	AUC of culture confluence over time ([6]; 80 µM)
O=C(/C(C(N1CC2=CC=CC=C2)=O)=C/C3=C(C)C=C(O)C=C3C)N(CC4=CC=CC=C4)C1=O	3.82	5.14	5.14	4.49	9.6	10.8	8.64	16.5	21.3	22.8	29.1	19.1	12.4	97 ± 6.9	98.1 ± 2.9	102 ± 6.1	70 ± 23	14.7 ± 7.9	0.901	0.839	0.861	0.841	0.776	0.292	0.419	0.0657	99.8 ± 4.9	98.5 ± 2.1	104 ± 5.8	77.3 ± 11	27.7 ± 8	50.9	49.8	46.2	34.6	12.1
O=C(NNS(=O)(=O)c1ccccc1F)c1cc(F)cc(-c2ccccn2)c1	4.25	5.31	5.99	9.11	10.5	9.4	–	–	21.6	19.3	22.2	–	–	97.4 ± 5.8	97.1 ± 5.3	97.2 ± 4.7	–	–	1	0.967	0.966	0.955	0.925	0.939	–	–	101 ± 5.7	103 ± 5.3	104 ± 5.1	–	–	47.7	48.6	51.9	–	–
Cn1nnnc1SC1=CS(=O)(=O)c2ccccc21	5.5	8.76	12	21.3	13.8	21.5	–	–	3.69	2.11	0.199	–	–	54.9 ± 6.7	65.2 ± 7.2	6.9 ± 1.4	–	–	0.936	0.834	0.727	0.392	0.322	0.255	–	–	59.4 ± 4.2	85.3 ± 12	23.3 ± 3.9	–	–	19.6	16	12.1	–	–
O=C1CC(Nc2ccccc2)C(=O)N1Cc1ccccc1 (stereo not given)	3.91	3.72	3.99	4.03	4.46	3.59	–	–	–	33.5	34.3	–	–	116 ± 4.3	106 ± 4.3	100 ± 4.4	–	–	1.01	1.03	1.03	0.984	0.96	1.05	–	–	92.2 ± 3.2	94.5 ± 4.7	102 ± 6.3	–	–	48	38.3	43.1	–	–
CCCCCC[C@H]1C(=O)O[C@H](C)[C@H](NC(=O)c2cccc(NC=O)c2O)C(=O)O[C@@H](C)[C@@H]1OC(=O)CC(C)C	12.7	13.2	12.9	12.9	12.8	12.2	–	–	21.6	23.5	22.4	–	–	54.1 ± 5.4	59.2 ± 1.6	56.2 ± 3.1	–	–	0.8	0.81	0.802	0.8	0.783	0.831	–	–	65.6 ± 6.7	69.4 ± 4	66.1 ± 3	–	–	38	38	38.3	–	–
CCCCCCCCCCCCCCCc1cccc(O)c1C(=O)O	3.17	3.13	3.54	3.63	4.51	3.58	12.9	21	19	18.3	24.7	19.7	18.1	102 ± 3	106 ± 5.8	100 ± 2.9	104 ± 4.9	101 ± 5.3	1.09	1.09	1.13	1.05	1.01	1.05	0.326	0.342	105 ± 3.3	94.7 ± 4.2	98.8 ± 4.7	95.5 ± 3.8	96.7 ± 3.9	42.7	53.4	52.9	51.2	40.9
Cc1cc2c(C(C)C)c(O)c(O)c(C=O)c2c(O)c1-c1c(C)cc2c(C(C)C)c(O)c(O)c(C=O)c2c1O	3.83	4.24	4.3	5.05	15.5	17.8	22.1	24.1	16.4	15.8	7.02	3.8	1.25	96.4 ± 1.8	88.1 ± 5.2	68.2 ± 2.1	42.7 ± 11	5.12 ± 1.6	1.09	1.1	1.09	1.02	0.937	0.551	0.246	0.261	92.2 ± 3.2	70 ± 4.9	63.3 ± 3.2	62.8 ± 3.7	18.2 ± 4.2	48.5	36.2	32.6	18.2	18.5
Cc1cc(-c2ccccc2)cc(C(=O)NNS(=O)(=O)c2ccccc2)c1F	6.33	7.18	6.97	6.92	8.27	8.87	–	–	37	26	29	–	–	109 ± 6	101 ± 7.7	98.9 ± 2.5	–	–	0.914	0.965	0.931	0.965	0.952	0.966	–	–	124 ± 13	109 ± 5.4	110 ± 4.2	–	–	52.8	51.6	46.7	–	–
C[C@H]1CCC/C=C/[C@@H]2C[C@H](O)C[C@H]2[C@H](O)/C=C/C(=O)O1	15.2	14.7	15.3	15.9	15.9	17.6	–	–	26.9	17.4	16.1	–	–	62.9 ± 3.7	64.5 ± 1.9	63.8 ± 3.9	–	–	0.653	0.645	0.645	0.629	0.562	0.479	–	–	54 ± 2.2	41.5 ± 18	45.2 ± 18	–	–	18.6	18.1	18.2	–	–
Cc1cc(NC(=O)c2cccc(NC(=O)/C=C/CN(C)C)c2)ccc1Nc1nccc(-c2cccnc2)n1	10.3	11.4	11	10.8	11.1	13	–	–	23.3	21	8.13	–	–	102 ± 7.2	98.9 ± 2.7	78.6 ± 5.4	–	–	0.888	0.863	0.841	0.839	0.742	0.425	–	–	93.9 ± 3.6	94.7 ± 6.5	72.6 ± 3.4	–	–	45.6	31.1	15.2	–	–
C=CC(=O)Nc1ccc(CN2C(=O)N(c3cc(OC)cc(OC)c3)Cc3cnc(Nc4ccc(N5CCN(C)CC5)cc4)nc32)cc1	6.58	8.57	8.77	10.2	12.1	22.1	–	–	13.6	16.7	12.9	–	–	91 ± 4.1	79.2 ± 3.3	69.2 ± 8.3	–	–	0.983	0.946	0.955	0.951	0.83	0.673	–	–	96.1 ± 3.3	93.1 ± 5	98.9 ± 4.6	–	–	44.2	37.3	27.8	–	–
Cn1c(SC2=CS(=O)(=O)c3ccccc32)nnc1-c1ccc(O)cc1	6.03	8.31	10.7	13.1	16.2	13.2	–	–	10.2	4.41	2.8	–	–	96.8 ± 4.4	66 ± 4.1	71.2 ± 4.6	–	–	0.933	0.993	0.903	0.761	0.527	0.379	–	–	113 ± 51	82.1 ± 41	48.7 ± 27	–	–	22.8	21.2	22.3	–	–
CCC(=O)N1CCN(c2ccc(-n3c(=O)ccc4cnc5ccc(-c6cnc7ccccc7c6)cc5c43)cc2C(F)(F)F)CC1	12.8	12.6	12.4	13.4	13.2	14.2	–	–	16.1	15	13.4	–	–	66.4 ± 3.2	66.8 ± 3.4	61.4 ± 4	–	–	0.752	0.716	0.68	0.714	0.683	0.656	–	–	58.8 ± 4.2	58.6 ± 4.8	64 ± 3.3	–	–	26.9	27.2	26.1	–	–
Cc1onc(C(=O)N2CCN(C(c3ccc(Cl)cc3)c3ccc(Cl)cc3)CC2)c1[N+](=O)[O-]	8.18	8.49	10.6	9.26	11.2	11.3	–	–	21	19.2	16.3	–	–	88.8 ± 4.4	92.4 ± 4.1	84.1 ± 6.2	–	–	0.903	0.945	0.883	0.853	0.9	0.81	–	–	107.3 ± 0.95	110 ± 4.7	107 ± 4.3	–	–	31.1	29.2	28.8	–	–
c1ccc(Nc2nc(-c3ccccc3)ns2)cc1	4.12	4.49	4.32	5.01	9.5	11.4	–	–	23.1	14.2	15.3	–	–	98.7 ± 3	95.3 ± 1.7	97.7 ± 4	–	–	0.915	0.89	0.908	0.925	0.958	0.841	–	–	104 ± 6.9	96.4 ± 2.9	98.2 ± 2.9	–	–	49.5	46.8	49.1	–	–
